Measurements published in patent EP4786459A1, “BENZENE RING-CONTAINING COMPOUND HAVING ANALGESIC EFFECT, PREPARATION METHOD THEREFOR, AND USE THEREOF” (West China Hospital, Sichuan University, priority 2023, dated 2025).

Tests used:
[1] = Loss of tail withdrawal reflex (LOTWR) in rats, single intravenous injection, dose escalation: potent analgesic effect and severe adverse reactions; type: in vivo, SD rats; settings: rat, in vivo, single intravenous injection, minimum dose resulting in serious adverse reactions / minimum effective dose, class symbol, read-out: The safety therapeutic index
Experimental: (§1) Using the loss of tail withdrawal reflex (LOTWR) in rats as an indicator, the potent analgesic effect of the compounds according to the present invention was evaluated.
(§2) 1.1 Experimental animals: Adult male SD rats weighing between 220-300 g were selected for the experiment. The rats were housed in sawdust-bedded cages with a temperature of 25±1°C, humidity ranging from 40% to 60%, and a 12-hour light/12-hour dark cycle. Each cage contained no more than 5 rats, with free access to water and food.
(§3) • (1) The compound of the present invention, along with the positive control drug remifentanil and the negative control (vehicle), were administered in fixed volumes. A dose escalation approach was employed to determine the minimum effective dose at which the compound of the present invention produces potent analgesic effects, as well as the minimum dose at which severe adverse reactions first appear. • (2) LOTWR lasting for 30 seconds was used as the criterion for generating potent analgesic effects. During the experiment, drugs were administered via the tail vein of rats, with a dosage volume of 0.6 mL per rat and a dosage rate of 0.02 mL/s. Subsequently, an alligator clip was applied at a distance of 1 cm from the base of the rat's tail, clamping once longitudinally and once transversely before being left in place. Meanwhile, the distal end of the alligator clip was continuously oscillated (30 times/min) to continuously generate stimulation. […] When all results were "no LOTWR" after 10 minutes of testing (5 trials), the test was stopped and recorded as "ineffective." • (3) All compounds would undergo a dose escalation for efficacy evaluation, starting from 1 mg/kg (due to the high potency of remifentanil, the lowest dose was set at 1 µg/kg), followed by 5 mg/kg, 10 mg/kg, 20 mg/kg, and so on (increasing by 20 mg/kg increments after 20 mg/kg). The dose escalation would be stopped when rats show signs of death, and the lowest effective dose and the lowest dose at which severe adverse reactions occur would be recorded throughout the process. In this study, severe adverse reactions are defined as apnea, generalized tonic rigidity, convulsions, opisthotonus, seizures, etc.
(§4) 1.3 Evaluation indicators: the minimum effective dose; the minimum dose resulting in serious adverse reactions; the safety therapeutic index = "the minimum dose resulting in serious adverse reactions" / "the minimum effective dose".

rats = experiment: as above; type: in vivo, SD rats; settings: Rattus norvegicus, single intravenous injection (tail vein), LOTWR lasting for 30 seconds as criterion, class symbol, read-out: The minimum effective dose
Experimental: as §1, §2, §3, §4

SMILES	selectivity ratio [1]	minimal effective dose (rats)
Cc1ccc(CNC(=O)NCc2ccsc2)c(N(C)C)c1 [Example 1]	2 to 4	≤ 10 mg/kg
Cc1ccc(CNC(=S)NCc2ccsc2)c(N(C)C)c1 [Example 2, 1-(2-(dimethylamino)-4-methylbenzyl)-3-(thiophene-3-ylmethyl)thiourea]	≤ 2	≤ 10 mg/kg
Cc1ccc(CNC(=N)NCc2ccsc2)c(N(C)C)c1 [Example 3, 1-(2-(dimethylamino)-4-methylbenzyl)-3-(thiophen-3-ylmethyl)guanidine]	2 to 4	≤ 10 mg/kg
Cc1ccc(CNC(=NC#N)NCc2ccsc2)c(N(C)C)c1 [Example 4]	≤ 2	> 30 mg/kg
Cc1ccc(CNC(=O)OCc2ccsc2)c(N(C)C)c1 [Example 5]	2 to 4	≤ 10 mg/kg
Cc1ccc(COC(=O)NCc2ccsc2)c(N(C)C)c1 [Example 6, 2-(dimethylamino)-4-methylbenzyl(thiophene-3-ylmethyl)carbamate]	2 to 4	≤ 10 mg/kg
Cc1ccc(CNC(=C[N+](=O)[O-])NCc2ccsc2)c(N(C)C)c1 [Example 7]	≤ 2	> 30 mg/kg
Cc1ccc(CNc2c(NCc3ccsc3)c(=O)c2=O)c(N(C)C)c1 [Example 8]	≤ 2	> 30 mg/kg
Cc1ccc(CNC(=O)NCc2ccoc2)c(N(C)C)c1 [Example 9]	≤ 2	20 to 30 mg/kg
Cc1ccc(CNC(=O)NCc2cccs2)c(N(C)C)c1 [Example 10]	> 4	≤ 10 mg/kg
Cc1ccc(CCNC(=O)NCc2ccsc2)c(N(C)C)c1 [Example 11, 1-(2-(dimethylamino)-4-methylphenethyl)-3-(thiophene-3-ylmethyl)urea]	2 to 4	≤ 10 mg/kg
Cc1ccc(CNC(=O)NCCc2ccsc2)c(N(C)C)c1 [Example 12, 1-(2-(dimethylamino)-4-methylbenzyl)-3-(2-(thiophene-3-yl)ethyl)urea]	≤ 2	≤ 10 mg/kg
Cc1ccc(NC(=O)Nc2ccsc2)c(N(C)C)c1 [Example 13]	> 4	≤ 10 mg/kg
Cc1ccc(NC(=N)Nc2ccsc2)c(N(C)C)c1 [Example 14]	≤ 2	≤ 10 mg/kg
CN(C)c1cc(O)ccc1CNC(=O)NCc1ccsc1 [Example 15]	> 4	10 to 20 mg/kg
[2H]C([2H])([2H])N(c1cc(C)ccc1CNC(=O)NCc1ccsc1)C([2H])([2H])[2H] [Example 17]	2 to 4	≤ 10 mg/kg
Cc1ccc(CNC(=O)NCc2ccsc2)cc1N(C)C [Example 18]	2 to 4	≤ 10 mg/kg
Cc1ccc(CNC(=S)NCc2ccsc2)cc1N(C)C [Example 19, 1-(3-(dimethylamino)-4-methylbenzyl)-3-(thiophene-3-ylmethyl)thiourea]	≤ 2	≤ 10 mg/kg
Cc1ccc(CNC(=N)NCc2ccsc2)cc1N(C)C [Example 20, 1-(3-(dimethylamino)-4-methylbenzyl)-3-(thiophen-3-ylmethyl)guanidine]	≤ 2	≤ 10 mg/kg
Cc1ccc(NC(=N)Nc2ccsc2)cc1N(C)C [Example 21]	> 4	≤ 10 mg/kg

SMILES	selectivity ratio [1]	minimal effective dose (rats)
COC(=O)C(C#N)=C(NCc1ccsc1)NCc1ccc(C)cc1N(C)C [Example 22]	≤ 2	> 30 mg/kg
Cc1ccc(CNC(=O)NCc2ccco2)c(N(C)C)c1 [Example 23]	≤ 2	> 30 mg/kg
CN(C)c1ccccc1CNC(=O)NCc1ccsc1 [Example 24]	2 to 4	10 to 20 mg/kg
Cc1ccc(CNC(=N)NCc2cccs2)c(N(C)C)c1 [Example 26]	≤ 2	> 30 mg/kg
CN(C)c1ccccc1CNC(=O)NCc1cccs1 [Example 27]	> 4	≤ 10 mg/kg
CN(C)c1ccccc1CNC(=S)NCc1cccs1 [Example 28]	≤ 2	> 30 mg/kg
CN(C)c1cc(C(F)(F)F)ccc1CNC(=O)NCc1cccs1 [Example 29]	≤ 2	≤ 10 mg/kg
CN(C)c1cccc(CNC(=O)NCc2ccsc2)c1 [Example 30]	≤ 2	20 to 30 mg/kg
Cc1ccc(CNC(=O)NCc2cccs2)cc1N(C)C [Example 31]	> 4	≤ 10 mg/kg
Cc1ccc(CNC(=S)NCc2cccs2)cc1N(C)C [Example 32]	> 4	≤ 10 mg/kg
Cc1ccc(CNC(=N)NCc2cccs2)cc1N(C)C [Example 33]	≤ 2	≤ 10 mg/kg
CN(C)c1cccc(CNC(=O)NCc2cccs2)c1 [Example 34]	≤ 2	20 to 30 mg/kg
Cc1ccc(CNC(=O)NCc2ccoc2)cc1N(C)C [Example 35]	2 to 4	20 to 30 mg/kg
Cc1ccc(CNC(=O)NCc2ccco2)cc1N(C)C [Example 36]	> 4	≤ 10 mg/kg
Cc1ccc(CNC(=O)NCc2ccns2)c(N(C)C)c1 [Example 37]	> 4	≤ 10 mg/kg
Cc1ccc(CNC(=O)NCc2cncs2)c(N(C)C)c1 [Example 38]	2 to 4	10 to 20 mg/kg
Cc1ccc(CNC(=O)NCc2nccs2)c(N(C)C)c1 [Example 39]	2 to 4	10 to 20 mg/kg
CN(C)c1ccccc1CNC(=O)NCc1ccns1 [Example 41]	≤ 2	> 30 mg/kg
Cc1ccc(CNC(=O)NCc2ccno2)c(N(C)C)c1 [Example 42]	≤ 2	> 30 mg/kg
Cc1ccc(CNC(=O)NCc2ncc[nH]2)c(N(C)C)c1 [Example 43]	> 4	10 to 20 mg/kg

SMILES	selectivity ratio [1]	minimal effective dose (rats)
COC(=O)CCc1ccc(CNC(=O)NCc2ccsc2)c(N(C)C)c1 [Example 44]	≤ 2	10 to 20 mg/kg
CNC(=O)CCc1ccc(CNC(=O)NCc2ccsc2)c(N(C)C)c1 [Example 45]	2 to 4	> 30 mg/kg
Cc1ccc(CNC(=O)NCc2nnn[nH]2)c(N(C)C)c1 [Example 46]	≤ 2	> 30 mg/kg
COc1c(N(C)C)cc(CNC(=O)NCc2ccsc2)cc1N(C)C [Example 47]	≤ 2	≤ 10 mg/kg
CN(C)c1ccc(Oc2ccccc2)cc1CNC(=O)NCc1ccsc1 [Example 48]	2 to 4	≤ 10 mg/kg
Cc1ccc(N(C)C)c(CNC(=O)NCc2ccns2)c1 [Example 49]	2 to 4	> 30 mg/kg
COC(=O)c1ccc(CNC(=O)NCc2ccc(C)cc2N(C)C)s1 [Example 50]	≤ 2	20 to 30 mg/kg
CCCCc1cc(CNC(=O)NCc2ccc(C)cc2N(C)C)cs1 [Example 51]	2 to 4	≤ 10 mg/kg
CCCCc1cscc1CNC(=O)NCc1ccc(C)cc1N(C)C [Example 52]	2 to 4	≤ 10 mg/kg
CCCCc1ccc(CNC(=O)NCc2ccsc2)c(N(C)C)c1 [Example 53]	≤ 2	≤ 10 mg/kg
Cc1ccc(CNC(=O)NCc2ccsc2)c(N2CCCCC2)c1 [Example 54]	≤ 2	≤ 10 mg/kg
CCN(CC)c1cc(C)ccc1CNC(=O)NCc1ccsc1 [Example 55]	≤ 2	≤ 10 mg/kg
CN(C)c1cc(CCNC(=O)C2COC2)ccc1CNC(=O)NCc1ccsc1 [Example 56]	≤ 2	≤ 10 mg/kg
CNc1cc(C)ccc1CNC(=O)NCc1ccsc1 [Example 57]	≤ 2	10 to 20 mg/kg
Cc1ccc(CNC(=O)NCc2ncc[nH]2)cc1N(C)C [Example 58]	≤ 2	> 30 mg/kg
Cc1ccc(NC(=O)NCc2ncc[nH]2)c(N(C)C)c1 [Example 59]	2 to 4	10 to 20 mg/kg
Cc1ccc(NC(=O)NCc2ccns2)c(N(C)C)c1 [Example 60]	≤ 2	10 to 20 mg/kg
Cc1ccc(CNC(=O)Nc2ccns2)c(N(C)C)c1 [Example 61]	≤ 2	≤ 10 mg/kg
Cc1ccc(CNC(=O)NCc2ccccc2)c(N(C)C)c1 [Example 62]	2 to 4	10 to 20 mg/kg
